Columns and labels:
PI3K [1] = test: Phosphorylation of PI3K in UT7 cells; type: cell-based, human; details: 60 minutes, FIG. 5B
Method: (§1) UT7 cells were treated with 10 nM Compound 102, 100 nM Compound 102, or control (vehicle). Phosphorylation of the EPO receptor was measured after 15 minutes or 45 minutes of treatment with Compound 101 or control (vehicle) (FIG. 5A). Phosphorylation of PI3K was measured after 60 minutes of treatment with EPO, Compound 101, or control (vehicle) (FIG. 5B). Phosphorylation of GATA1 was measured after 60 minutes treatment with Compound 102, EPO or control (vehicle) (FIG. 5C).

GATA1 [2] = test: Electrophoretic mobility shift assay for GATA1 in UT7 cells; type: cell-based, human; details: 30 minute treatment
Method: Binding of GATA1 to DNA was measured in an electrophoretic mobility shift assay for GATA1 in UT7 cells after 30 minute treatments with 1 U/ml EPO, 30 nM Compound 102, or 100 nM Compound 101.

UT7 cells = test: Relative cell viability of UT7 cells transfected with EPO receptor- and GATA1-specific siRNAs; type: cell-based, human; details: 30 nM Compound 101, FIG. 7
Method: UT7 cells transfected with EPO receptor- and GATA1-specific siRNAs were treated with 1 U/ml EPO, 30 nM Compound 101, or control (vehicle). The relative cell viability of the cells was measured (FIG. 7).

[3] = test system: CD34+ human bone marrow cells; test: BFU-E colony formation in human CD34+ bone marrow cells; type: cell-based; details: Compound 101 10 nM
Method: CD34+ human bone marrow cells were incubated with recombinant human EPO, Compound 101, or control. Compound 101 stimulated the formation of BFU-E colonies with partial efficacy (31%) when incubated with BM-HCs.

[4] = test system: CD34+ human bone marrow cells (BM-HCs); test: Relative differentiation of human bone marrow cells (CD235a expression); type: cell-based; details: 10 nm Compound 101; FIG. 4
Method: CD34+ human bone marrow cells (BM-HCs) were treated with various concentrations of recombinant human EPO, Compound 101, Compound 102, or control. The number of cells expressing the erythrocyte-specific marker, CD235a (glycophorin A), was measured. […] The level of expression of CD235a in cells treated with 10 nm Compound 101 was approximately 37% of the level of expression of CD235a in cells treated with 2.0 U/ml EPO.

Erythroid cells = test: EPO-dependent cell viability assay; type: cell-based; details: for maximum efficacy relative to the efficacy of EPO (cell viability): erythroid cells, FIG. 3; for erythropoietic efficacy compared with EPO at typical serum concentrations: typical EPO in blood approx. 0.01 U/ml
Method: Erythroid cells were treated with various concentrations of recombinant human EPO, Compound 101, or Compound 102, and the viability of treated cells was measured. The maximum efficacies of Compounds 101 and 102 was approximately 40% of the efficacy of EPO, corresponding to EPO EC40 of approximately 0.02 U/ml (FIG. 3). The typical EPO concentration in blood is approximately 0.01 U/ml, with a range from about 0.006 U/ml to about 0.032 U/ml.

GATA1 [5] = test: Phosphorylation of GATA1 in UT7 cells; type: cell-based, human; details: 60 minutes, FIG. 5C
Method: as §1

EPO receptor = biological target: T1, EPO receptor (Homo sapiens, UniProt P19235); test: Phosphorylation of the EPO receptor in UT7 cells; type: cell-based; details: 10 nM or 100 nM, 15 or 45 minutes, FIG. 5A
T1 construct: endogenous in cells; host or cells: UT7 cells
Method: as §1

BM-HCs [6] = test: Lineage specificity in BM-HCs (CD41, CD15 markers); type: cell-based, human
Method: (§2) In addition, Compound 103 stimulated the formation of BFU-E colonies with partial efficacy (30%) when incubated with BM-HCs for 14 days. The effect of Compound 103 on BM-HCs was specific for the erythroid lineage.

Mo7e cells = test: Apoptosis in Mo7e cells that lack EPO receptor; type: cell-based; details: GM-CSF- and TPO-responsive human leukemia Mo7e cells that lack EPO receptor
PI3K [7] = test: Phosphorylation of PI3K in UT7EPO cells; type: cell-based, human
Method: (§3) Using human cell lines, the action of Compound 103 was determined to be dependent on the EPO receptor and involves the selective activation of the PI3K/AKT-GATA1 signaling pathway.

GATA1 [8] = test: Phosphorylation of GATA1 in UT7EPO cells; type: cell-based, human
Method: as §3

GATA1 [9] = test: Binding of GATA1 to DNA in UT7EPO cells; type: cell-based, human
Method: as §3

EPOR = biological target: T2, EPOR (Homo sapiens, UniProt P19235); test: Phosphorylation of EPOR in UT7EPO cells; type: cell-based
T2 construct: In the human EPO-dependent cell line UT7EPO; endogenous in cells; host or cells: UT7EPO cells
Method: as §3

STAT5 [10] = test: STAT5 DNA binding in UT7EPO cells; type: cell-based, human
Method: as §3

UT7EPO cells = test: Apoptosis induced by EPO withdrawal / cell survival in UT7EPO cells; type: cell-based, human
Method: as §3

BCL2L1 [11] = test: BCL2L1 expression in Mo7e cells that lack EPO receptor; type: cell-based; details: GM-CSF- and TPO-responsive human leukemia Mo7e cells that lack EPO receptor
[12] = test system: CD34+ human bone marrow hematopoietic cells (BM-HCs); test: Percentage of CD235a (glycophorin A) positive cells in CD34+ BM-HCs; type: cell-based
[13] = test system: EPO responsive genes (hemoglobin α, EPO receptor, BCL2L1); test: Expression of EPO responsive genes in CD34 positive BM-HCs; type: cell-based, human
STAT5 [14] = test: Phosphorylation of STAT5 in UT7EPO cells; type: cell-based, human
Method: as §3

BM-HCs [15] = test: BFU-E colony formation in BM-HCs, 14 days; type: cell-based, human; details: incubated with BM-HCs for 14 days
Method: as §2

ERK/MAPK = test: Phosphorylation of ERK/MAPK in UT7EPO cells; type: cell-based, human
Method: as §3

BCL2L1 [16] = test: BCL2L1 expression in UT7EPO cells; type: cell-based, human
Method: as §3

T2 sequence (P19235 25-508): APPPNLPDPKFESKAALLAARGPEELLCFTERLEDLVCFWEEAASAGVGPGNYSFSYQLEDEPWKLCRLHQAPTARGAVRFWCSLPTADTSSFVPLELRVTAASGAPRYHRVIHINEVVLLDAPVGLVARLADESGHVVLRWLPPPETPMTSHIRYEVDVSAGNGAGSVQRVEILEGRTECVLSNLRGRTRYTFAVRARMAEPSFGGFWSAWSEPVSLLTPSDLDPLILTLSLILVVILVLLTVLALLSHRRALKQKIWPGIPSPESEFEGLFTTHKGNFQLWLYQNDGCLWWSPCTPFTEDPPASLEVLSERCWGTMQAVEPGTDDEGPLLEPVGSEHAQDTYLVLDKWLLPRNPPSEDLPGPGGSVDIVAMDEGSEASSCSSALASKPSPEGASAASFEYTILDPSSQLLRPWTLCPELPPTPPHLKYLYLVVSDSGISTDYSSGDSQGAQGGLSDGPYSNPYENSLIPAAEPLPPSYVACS
T2 sequence (O60674 whole entry partner): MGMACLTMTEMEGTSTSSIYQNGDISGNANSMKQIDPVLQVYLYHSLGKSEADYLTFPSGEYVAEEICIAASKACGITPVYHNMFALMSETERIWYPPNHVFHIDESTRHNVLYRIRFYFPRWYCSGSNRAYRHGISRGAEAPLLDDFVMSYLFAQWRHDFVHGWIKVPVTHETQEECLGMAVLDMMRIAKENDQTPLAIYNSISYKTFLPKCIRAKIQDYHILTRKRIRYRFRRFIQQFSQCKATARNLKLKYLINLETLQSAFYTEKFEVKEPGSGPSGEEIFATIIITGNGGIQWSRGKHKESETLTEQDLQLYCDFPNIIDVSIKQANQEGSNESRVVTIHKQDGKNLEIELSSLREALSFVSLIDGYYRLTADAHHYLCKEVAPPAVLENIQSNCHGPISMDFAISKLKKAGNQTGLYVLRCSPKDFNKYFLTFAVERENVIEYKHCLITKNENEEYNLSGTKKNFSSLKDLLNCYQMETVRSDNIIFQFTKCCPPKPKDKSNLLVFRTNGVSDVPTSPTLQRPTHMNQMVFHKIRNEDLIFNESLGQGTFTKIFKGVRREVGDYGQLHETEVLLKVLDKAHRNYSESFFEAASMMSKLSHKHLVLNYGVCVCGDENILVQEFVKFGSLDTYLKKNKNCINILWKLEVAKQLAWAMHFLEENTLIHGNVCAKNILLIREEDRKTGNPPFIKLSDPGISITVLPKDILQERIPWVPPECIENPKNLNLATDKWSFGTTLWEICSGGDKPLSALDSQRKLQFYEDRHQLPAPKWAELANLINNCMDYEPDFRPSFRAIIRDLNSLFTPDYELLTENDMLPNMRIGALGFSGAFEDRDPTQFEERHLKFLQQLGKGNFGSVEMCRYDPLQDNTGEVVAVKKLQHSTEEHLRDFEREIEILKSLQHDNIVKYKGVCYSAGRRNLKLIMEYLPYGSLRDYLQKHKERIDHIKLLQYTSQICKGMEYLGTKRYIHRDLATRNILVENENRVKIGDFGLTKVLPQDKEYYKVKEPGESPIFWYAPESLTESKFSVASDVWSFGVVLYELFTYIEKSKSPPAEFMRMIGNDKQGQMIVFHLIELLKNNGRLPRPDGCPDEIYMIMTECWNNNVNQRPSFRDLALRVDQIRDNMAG
T1 sequence (P19235 25-508): as the sequence (P19235 25-508) above
T1 sequence (O60674 whole entry partner): as the sequence (O60674 whole entry partner) above

Question: For `CN(C)c1ccc(C(=O)N/N=C/c2ccc(Oc3ccc(/C=N/NC(=O)c4ccc(N(C)C)cc4)cc3)cc2)cc1` [Compound 101, (N′,N′″E,N′,N′″E)-N′,N′″-((Oxybis(4,1-phenylene))bis(methanylylidene))bis(4-(dimethylamino)benzohydrazide)], which “phosphorylation of PI3K” value (PI3K [1]) is on record?
Answer: Its value is “stimulated phosphorylation”.

Question: What about the “binding of GATA1 to DNA (EMSA)” value (GATA1 [2]; 100 nM Compound 101) of the same compound?
Answer: Its value is “induce binding of GATA1 to DNA”.

Question: And the “effect of EPO receptor- and GATA1-specific siRNAs on compound activity (relative cell viability)” value (UT7 cells)?
Answer: Its value is “blocks activity”.

Question: What about the “% BFU-E relative to 3 U/ml EPO” value [3] of the same compound?
Answer: Its value is 31%.

Question: And the BFU-Es/Dish [3]?
Answer: Its BFU-Es/Dish is 11.

Question: What about the “level of expression of CD235a compared with cells treated with 0.01 U/ml EPO” value [4] of the same compound?
Answer: The value was “above the level of expression observed in cells treated with 0.01 U/ml EPO”.

Question: What about the “level of expression of CD235a relative to cells treated with 2.0 U/ml EPO” value [4] of the same compound?
Answer: Its value is “approximately 37%”.

Question: What about the “maximum efficacy relative to the efficacy of EPO (cell viability)” value (Erythroid cells) of the same compound?
Answer: Its value is “approximately 40%”.

Question: What about the “erythropoietic efficacy compared with EPO at typical serum concentrations” value (Erythroid cells) of the same compound?
Answer: The value was “greater than would be predicted for EPO at typical serum concentrations”.

Question: `COc1cccc(C(=O)N/N=C/c2ccc(Oc3ccc(/C=N/NC(=O)c4cccc(OC)c4)cc3)cc2)c1` [Compound 102, (N′,N′″E,N′,N′″E)-N′,N′″-((oxybis(4,1-phenylene))bis(methanylylidene))bis(3-methoxybenzohydrazide)] was tested. Which “phosphorylation of GATA1” value (GATA1 [5]) did it give?
Answer: The value was “stimulated phosphorylation”.

Question: What about the “binding of GATA1 to DNA (EMSA)” value (GATA1 [2]; 30 nM Compound 102) of the same compound?
Answer: The value was “induce binding of GATA1 to DNA”.

Question: And the “phosphorylation of the EPO receptor” value (EPO receptor)?
Answer: Its value is “stimulated phosphorylation”.

Question: What about the “maximum efficacy relative to the efficacy of EPO (cell viability)” value (Erythroid cells) of the same compound?
Answer: The value was “approximately 40%”.

Question: What about the “erythropoietic efficacy compared with EPO at typical serum concentrations” value (Erythroid cells) of the same compound?
Answer: Its value is “greater than would be predicted for EPO at typical serum concentrations”.

Question: Which “percentage of BM-HCs positive for the granulocyte marker CD15” value (BM-HCs [6]) does the source give for `CN(C)c1ccc(C(=O)N/N=C/c2cccc(/C=N/NC(=O)c3ccc(N(C)C)cc3)c2)cc1` [Compound 103, (N′,N′″E,N′,N′″E)-N′,N′″-(1,3-phenylenebis(methanylylidene))bis(4-(dimethylamino)benzohydrazide)] here?
Answer: Its value is “did not increase”.

Question: And the “percentage of BM-HCs positive for the megakaryocyte marker CD41” value (BM-HCs [6])?
Answer: The value was “did not increase”.

Question: And the block of apoptosis (Mo7e cells)?
Answer: Its block of apoptosis is “did not block apoptosis”.

Question: What about the “phosphorylation of PI3K” value (PI3K [7]) of the same compound?
Answer: The value was “stimulated the phosphorylation”.

Question: And the “phosphorylation of GATA1” value (GATA1 [8])?
Answer: Its value is “stimulated the phosphorylation”.

Question: And the “binding of GATA1 to DNA” value (GATA1 [9])?
Answer: Its value is “induced the binding of GATA1 to DNA”.

Question: And the “phosphorylation of EPOR” value (EPOR)?
Answer: Its value is “stimulated the phosphorylation”.

Question: What about the “induction of STAT5 DNA binding” value (STAT5 [10]) of the same compound?
Answer: The value was “did not”.

Question: What about the EC50 (UT7EPO cells; Homo sapiens, UT-7/Epo, UT7EPO cells, read-out: EC50, block of apoptosis induced by EPO withdrawal) of the same compound?
Answer: Its EC50 is 10 nM.

Question: And the “activity after transfection with EPO receptor- and GATA1-specific siRNAs” value (UT7EPO cells; UT7EPO cells)?
Answer: Its value is “blocked the activity”.

Question: And the “effect on cell survival in presence of the PI3K inhibitor LY294002” value (UT7EPO cells; UT7EPO cells incubated with LY294002)?
Answer: The value was “blocked the effect”.

Question: And the “stimulation of BCL2L1 expression” value (BCL2L1 [11])?
Answer: Its value is “did not”.

Question: What about the “erythropoietic effect in combination with EPO” value ([12]; BM-HCs) of the same compound?
Answer: Its value is “additive to the effect of EPO”.

Question: And the EC50 ([12]; Homo sapiens, CD34+ BM-HCs, read-out: EC50, increase of percentage of cells positive for CD235a)?
Answer: Its EC50 is 2 nM.

Question: What about the Emax ([12]; Homo sapiens, CD34+ BM-HCs, read-out: efficacy relative to the maximal effect of EPO (3 U/ml), CD235a positive cells) of the same compound?
Answer: Its Emax is 42%.

Question: What about the “efficacy compared with the normal serum EPO concentration, CD235a positive cells” value ([12]; normal serum EPO (−0.01 U/ml)) of the same compound?
Answer: Its value is “greater than the efficacy of the normal serum EPO concentration”.

Question: What about the “expression of EPO responsive genes including hemoglobin α, EPO receptor and BCL2L1” value [13] of the same compound?
Answer: The value was “stimulated the expression”.

Question: What about the “phosphorylation of STAT5” value (STAT5 [14]) of the same compound?
Answer: Its value is “did not stimulate phosphorylation”.

Question: And the “formation of BFU-E colonies, partial efficacy” value (BM-HCs [15])?
Answer: The value was 30%.

Question: What about the “phosphorylation of ERK/MAPK” value (ERK/MAPK) of the same compound?
Answer: The value was “did not stimulate phosphorylation”.

Question: And the “stimulation of the expression of BCL2L1, efficacy” value (BCL2L1 [16])?
Answer: The value was “efficacy comparable to EPO”.
